In US8293909B2, “Compounds for the treatment of hepatitis C” (Bristol-Myers Squibb Company, priority 2008, dated 2012):

Legend:
1 a replicon = test: HCV replicon luciferase reporter assay, 384 plate protocol, 1a replicon; assay type: cell-based; conditions: Hepatitis C virus; Table 1; *384 plate protocol and a 1 a replicon
Procedure: The HCV replicon luciferase assay was developed to monitor the inhibitory effects of compounds described in the disclosure on HCV viral replication. Utilization of a replicon luciferase reporter assay was first described by Krieger et al (Krieger N, Lohmann V, and Bartenschlager R, J. Virol. 75(10):4614-4624 (2001)). HUH-7 cells, constitutively expressing the HCV replicon, were grown in Dulbecco's Modified Eagle Media (DMEM) (Gibco-BRL) containing 10% Fetal calf serum (FCS) (Sigma) and 1 mg/ml G418 (Gibco-BRL). Compounds were serially diluted 3 folds in DMSO for a twenty-point titration and subsequently transferred to sterile 384-well tissue-culture treated plates (Corning cat #3571). The plates were then seeded with 50 μl of cells at a density of 3.0×10^3 cells/well in DMEM containing 4% FCS (final DMSO concentration at 0.5%). After 3 days incubation at 37° C., cells were analyzed for Renilla Luciferase activity using the EnduRen as substrate (Promega cat #E6485). The EnduRen substrate was diluted in DMEM and then added to the plates to a final concentration of 7.5 μM. The plates were incubated for 2 hrs at 37° C. and then read immediately for 30 seconds with Viewlux Imager (PerkinElmer) using a luminescence program. […] The fluorescence signal from each well was read, with an excitation wavelength at 525/10 nm and an emission wavelength of 598/10 nm, using the Viewlux Imager.

HCV = conditions: cited from earlier work
[1] = tested on: HCV replicon in HUH-7 cells; test: HCV replicon luciferase reporter assay, 384 well plate protocol; assay type: cell-based; conditions: Hepatitis C virus, Table 2
Procedure: The HCV replicon luciferase assay was developed to monitor the inhibitory effects of compounds described in the disclosure on HCV viral replication. Utilization of a replicon luciferase reporter assay was first described by Krieger et al (Krieger N, Lohmann V, and Bartenschlager R, J. Virol. 75(10):4614-4624 (2001)). HUH-7 cells, constitutively expressing the HCV replicon, were grown in Dulbecco's Modified Eagle Media (DMEM) (Gibco-BRL) containing 10% Fetal calf serum (FCS) (Sigma) and 1 mg/ml G418 (Gibco-BRL). Compounds were serially diluted 3 folds in DMSO for a twenty-point titration and subsequently transferred to sterile 384-well tissue-culture treated plates (Corning cat #3571). The plates were then seeded with 50 μl of cells at a density of 3.0×10^3 cells/well in DMEM containing 4% FCS (final DMSO concentration at 0.5%). After 3 days incubation at 37° C., cells were analyzed for Renilla Luciferase activity using the EnduRen as substrate (Promega cat #E6485). The EnduRen substrate was diluted in DMEM and then added to the plates to a final concentration of 7.5 μM. The plates were incubated for 2 hrs at 37° C. and then read immediately for 30 seconds with Viewlux Imager (PerkinElmer) using a luminescence program. To assess cytotoxicity of compounds, CC50 values were generated by multiplexing the EnduRen-containing plates with Cell Titer-Blue (Promega, cat #G8082). 3 μl of Cell-Titer Blue was added to each well and incubated for 8 hrs at 37° C. The fluorescence signal from each well was read, with an excitation wavelength at 525/10 nm and an emission wavelength of 598/10 nm, using the Viewlux Imager.

[2] = target: T1, HCV NS5B RdRp genotype 1b (Hepatitis C virus genotype 1b, UniProt Q9WMX2); test: HCV NS5B RdRp enzyme assay (standard / modified); assay type: biochemical; conditions: HCV NS5B genotype 1b
T1 construct: The protein was expressed with an 18 amino acid C-terminal truncation to enhance the solubility; made in house; host or cells: E. coli BL21(DE3), pET21a vector
T1 sequence (Q9WMX2 2420-2992): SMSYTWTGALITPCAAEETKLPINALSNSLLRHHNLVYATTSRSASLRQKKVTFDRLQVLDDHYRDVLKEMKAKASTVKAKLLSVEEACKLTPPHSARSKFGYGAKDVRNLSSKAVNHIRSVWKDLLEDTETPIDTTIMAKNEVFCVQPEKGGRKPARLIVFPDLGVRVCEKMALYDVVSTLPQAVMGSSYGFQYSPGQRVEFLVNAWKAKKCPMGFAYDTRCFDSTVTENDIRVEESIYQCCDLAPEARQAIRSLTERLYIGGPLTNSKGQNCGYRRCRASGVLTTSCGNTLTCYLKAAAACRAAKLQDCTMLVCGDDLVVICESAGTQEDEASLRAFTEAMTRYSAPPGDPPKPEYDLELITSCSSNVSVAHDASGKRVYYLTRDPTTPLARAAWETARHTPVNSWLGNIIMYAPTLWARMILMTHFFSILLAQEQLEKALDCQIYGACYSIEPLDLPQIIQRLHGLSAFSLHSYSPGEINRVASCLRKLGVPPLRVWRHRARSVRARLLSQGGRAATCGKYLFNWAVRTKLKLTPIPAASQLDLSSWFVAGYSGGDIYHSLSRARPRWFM
How it was run: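 Genotype 1b NS5B with an 18-aa C-terminal truncation, expressed in E. coli, was tested by SPA incorporation of 3H-UTP (0.29 μM) on polyA/biotin-oligo-dT12. Standard assay: 28 nM enzyme, 6 nM template, 180 nM primer, 60 min at 30 °C, pH 7.5, 2% DMSO. Modified assay: 14 nM enzyme added to compound first, 0.2 nM template, 20 nM bead-precaptured primer, 4 h at 30 °C. IC50 used seven inhibitor concentrations.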

HCV replicon cells = test: HCV replicon assay (FRET or luciferase readout); assay type: cell-based; conditions: Hepatitis C virus
How it was run: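 Readout was NS3 protease cleavage of an EDANS/DABCYL FRET peptide (20 μM final) in lysed HCV replicon cells, or Renilla luciferase in reporter replicons. Background came from wells with the highest level of control protease inhibitor. EC50 marked the concentration giving 50% signal reduction.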

| Compound | IC50 ([2]; Table 1) [µM] | EC50 (HCV replicon cells; Table 1) [µM] | other results |
| --- | --- | --- | --- |
| CNC(=O)c1c(-c2ccc(F)cc2)nc2ccc(-c3ccc(-c4ccccc4Cl)c(C(=O)NCC(C)C)c3)cn12 [drawing 163] |  |  | EC50 (1 a replicon): 0.25 to 1 µM |
| CNC(=O)c1c(-c2ccc(F)cc2)oc2cc(N(CCO)S(C)(=O)=O)c(C3CC3)cc12 [HCV-796] |  |  | hepatic toxicity (HCV; extended dosing of the combination regimens with interferon and ribavirin): hepatic toxicity observed during extended dosing of the combination regimens; HCV RNA levels in patients (HCV; patients): showed an ability to reduce HCV RNA levels in patients |
| CNC(=O)c1c(-c2ccc(F)cc2)oc2ncc(-c3cc(C(=O)NC4(c5ccccn5)CC4)ccc3Cl)cc12 [drawing 187] |  |  | EC50 [1]: 0.0015 µM |
| alpha-interferon and ribavirin |  |  | sustained efficacy (HCV; combination therapy): 40 % of patients |
| CNC(=O)c1c(-c2ccc(F)cc2)oc2ncc(-c3cc(C(=O)NC4(c5ccccn5)CC4)ccc3C)cc12 [drawing 186] |  |  | EC50 [1]: 0.00204 µM; IC50 ([2]; Table 2): 0.00465 µM |
| pegylated alpha-interferon |  |  | clinical efficacy compared with unmodified alpha-interferon (HCV; monotherapy): superior to unmodified alpha-interferon as monotherapy |
| CNC(=O)c1c(-c2ccc(F)cc2)nn2cc(N(CCO)S(C)(=O)=O)c(-c3cc(C(=O)NCC(C)C)ccc3Cl)cc12 | 0.002 to 0.25 | 0.25 to 1 |  |
| CNC(=O)c1c(-c2ccc(F)cc2)nn2cccc(NC(=O)OC(C)(C)C)c12 | > 10 | > 10 |  |
| CNC(=O)c1c(-c2ccc(F)cc2)nc2ccc(-c3cc(C(=O)NC(C)(C)c4ccccc4)ccc3Cl)cn12 | 0.002 to 0.25 | 0.002 to 0.25 |  |
| CNC(=O)c1c(-c2ccc(F)cc2)nn2c(C)cc(-c3cc(C(=O)NC4(c5ccccc5)CC4)ccc3C)cc12 | 0.002 to 0.25 | 0.002 to 0.25 |  |
| CNC(=O)c1c(-c2ccccc2)nn2cc(N3CCCCS3(=O)=O)ccc12 | > 10 | > 10 |  |
| CNC(=O)c1c(-c2ccc(F)cc2)nn2ccc(-c3cc(C(=O)NC4(c5ccccc5)CC4)c(OC)cc3C)c(F)c12 [drawing 134] | 0.002 to 0.25 | 0.002 to 0.25 |  |
| CNC(=O)c1c(-c2ccc(F)cc2)nn2ccc(-c3cc(C(=O)NC4(c5cccc(F)c5)CC4)c(OC)cc3C)c(F)c12 | 0.002 to 0.25 | 0.002 to 0.25 |  |
| CNC(=O)c1c(-c2ccccc2)nn2ccc(-c3cccc(C(=O)NC(C)(C)c4ccccc4)c3)cc12 | 0.002 to 0.25 | 0.002 to 0.25 |  |
| CCOc1ccccc1-c1ccc2c(C(=O)NC)c(-c3ccc(F)cc3)nn2c1 | > 10 | > 10 |  |
| CNC(=O)c1c(-c2ccc(F)cc2)nn2cc(N(CCO)S(C)(=O)=O)c(OC)cc12 [drawing 184] |  |  | IC50 ([2]; Table 2): 2.92 µM; EC50 (HCV replicon cells; Table 2): 3.99 µM |
| CNC(=O)c1c(-c2ccc(F)cc2)nn2ccc(-c3cc(C(=O)NC4(c5ccc(F)cc5)CC4)c(OC)cc3C)c(F)c12 | 0.002 to 0.25 | 0.002 to 0.25 |  |
| CNC(=O)c1c(-c2ccc(F)cc2)nn2ccc(-c3cc(C(=O)NC4(C5CCCCC5)CC4)c(OC)cc3C)c(F)c12 | 0.002 to 0.25 | 0.002 to 0.25 |  |
| CNC(=O)c1c(-c2ccc(F)cc2)nc2ccc(-c3cc(C(=O)NC4(c5ccccn5)CC4)ccc3C)cn12 | 0.002 to 0.25 | 0.002 to 0.25 |  |
| CNC(=O)c1c(-c2ccc(F)cc2)nn2ccc(-c3cc(C(=O)NC4(c5ccccn5)CC4)ccc3C)c(F)c12 [drawing 130] | 0.002 to 0.25 | 0.002 to 0.25 |  |
| CNC(=O)c1c(-c2ccc(F)cc2)oc2ccc(-c3cccc(C(=O)NC4(c5ccccn5)CC4)c3)nc12 | 1 to 10 | 0.25 to 1 |  |
| CNC(=O)c1c(-c2ccc(F)cc2)nn2ccc(-c3cc(C(=O)NC4(C(C)C)CC4)c(OC)cc3C)c(F)c12 | 0.002 to 0.25 | 0.002 to 0.25 |  |

| Compound | IC50 ([2]; Table 1) [µM] | EC50 (HCV replicon cells; Table 1) [µM] | other results |
| --- | --- | --- | --- |
| CNC(=O)c1c(-c2ccc(F)cc2)nn2cccc(N)c12 | > 10 | > 10 |  |
| CNC(=O)c1c(-c2ccccc2)nn2cc(-c3ccccc3C)ccc12 | > 10 | > 10 |  |
| CNC(=O)c1c(-c2ccc(F)cc2)nn2ccc(-c3cc(C(=O)NC4(c5ccccc5)CC4)ccc3C)c(F)c12 [drawing 127] | 0.002 to 0.25 | 0.002 to 0.25 |  |
| CNC(=O)c1c(-c2ccc(F)cc2)nn2ccc(-c3cc(C(=O)NC4(c5ccccc5)CC4)c(OC)cc3C)c(F)c12 [drawing 174] |  |  | IC50 ([2]; Table 2): 0.01 µM; EC50 (HCV replicon cells; Table 2): 0.00392 µM |
| CNC(=O)c1c(-c2ccc(F)cc2)nn2c(F)cc(-c3cc(C(=O)NC4(c5ccccn5)CC4)ccc3C)cc12 | 0.002 to 0.25 | 0.002 to 0.25 |  |
| CNC(=O)c1c(-c2ccc(F)cc2)nn2ccc(-c3cc(C(=O)NC4(c5ccccn5)CC4)c(OC)cc3C)c(F)c12 [drawing 135] | 0.002 to 0.25 | 0.002 to 0.25 |  |
| CNC(=O)c1c(-c2ccc(F)cc2)nn2ccc(-c3cccc(C(=O)NC4(c5ccccc5)CC4)c3)cc12 | 0.002 to 0.25 | 0.002 to 0.25 |  |
| CNC(=O)c1c(-c2ccc(F)cc2)oc2ncc(-c3cc(C(=O)NC4(c5ccccn5)CC4)ccc3Cl)cc12 [drawing 113] | 0.002 to 0.25 | 0.002 to 0.25 |  |
| CNC(=O)c1c(-c2ccc(F)cc2)[nH]c2ccc(-c3cccc(C(=O)NC(C)(C)c4ccccc4)c3)cc12 [drawing 80] | 0.25 to 1 | 0.25 to 1 |  |
| CNC(=O)c1c(-c2ccc(F)cc2)nn2ccc(-n3ccc(C(=O)NC(C)(C)c4ccccc4)c3)cc12 | 1 to 10 | > 10 |  |
| CNC(=O)c1c(-c2ccc(F)cc2)nn2ccc(-c3cc(C(=O)NC4(c5ccccc5)CC4)ccc3C)c(F)c12 [drawing 185] |  |  | EC50 [1]: 0.00085 µM |
| CNC(=O)c1c(-c2ccc(F)cc2)nn2cc(N(CCO)S(C)(=O)=O)c(C3CC3)cc12 | 0.002 to 0.25 | 1 to 10 |  |
| CNC(=O)c1c(-c2ccc(F)cc2)nc2ccc(-c3cccc(C(=O)NC4(c5ccccc5)CC4)c3)cn12 | 0.002 to 0.25 | 0.002 to 0.25 |  |
| CNC(=O)c1c(-c2ccc(F)cc2)nn2cc(N(CCO)S(C)(=O)=O)c(-c3cccc(C(=O)NC(C)(C)c4ccccc4)c3)cc12 | 0.002 to 0.25 | 0.002 to 0.25 |  |
| CNC(=O)c1c(-c2ccc(F)cc2)nn2cc(N(CCO)S(C)(=O)=O)c(OC)cc12 [drawing 50] | 1 to 10 | 1 to 10 |  |
| CNC(=O)c1c(-c2ccc(F)cc2)nn2ccc(-c3cc(C(=O)NC4(c5ncccn5)CC4)c(OC)cc3C)c(F)c12 | 0.002 to 0.25 | 0.002 to 0.25 |  |
| CNC(=O)c1c(-c2ccc(F)cc2)nn2ccc(-c3cc(C(=O)NC4(c5ncccn5)CC4)ccc3C)c(F)c12 | 0.002 to 0.25 | 0.002 to 0.25 |  |
| CCN(c1cn2nc(-c3ccc(F)cc3)c(C(=O)NC)c2cc1C1CCCCC1)S(C)(=O)=O | 1 to 10 | 1 to 10 |  |
| CNC(=O)c1c(-c2ccc(F)cc2)nc2ccc(-c3cc(C(=O)NC4(c5ccccn5)CC4)c(OC)cc3Cl)cn12 [drawing 164] |  |  | EC50 (1 a replicon): 0.002 to 0.25 µM |
| CNC(=O)c1c(-c2ccc(F)cc2)nc2ccc(-c3cc(C(=O)NC(C)(C)c4ccccc4)ccc3C)cn12 | 0.002 to 0.25 | 0.002 to 0.25 |  |
| CNC(=O)c1c2cc(-c3cc(C(=O)NC(C)(C)c4ccccc4)ccc3C)ccc2nn1-c1ccc(F)cc1 | 0.002 to 0.25 | 0.002 to 0.25 |  |
| CNC(=O)c1c(-c2ccc(F)cc2)nc2ccc(-c3ccc(-c4ccccc4)c(C(=O)NCC(C)C)c3)cn12 | > 0.5 | 0.25 to 1 |  |
